Experiment [1] relates to Human neural stem cells (hNSCs). As to the kind of experiment: Neuronal differentiation of human neural stem cells (TUJ-1 staining). The class given is cell-based. Conditions: for EC50: agent alone. An excerpt:
In one non-limiting example neurogenesis, a neurogenic response, and neurodifferentiation are all measured in an in vitro assay as follows. Human neural stem cells (hNSCs) are isolated and grown in monolayer culture, plated, treated with varying concentrations of a first neurogenic agent, or a combination of a first neurogenic agent with one or more additional neurogenic agents (test compound), and stained with TUJ-1 antibody to identify neurons and/or GFAP to identify astrocytes, as described in PCT Application No. US06/026677. Mitogen-free test media with a positive control is used for neuronal differentiation, and basal media without growth factors serves as a negative control. Neurogenesis is determined, for example, by measuring the proliferation and/or differentiation of the hNSCs in the presence of varying concentrations of test compound compared to the absence of the test compound (negative control). A neurogenic response is measured, for example, in a similar manner to neurogenesis, except that astrogenesis is also measured and the ratio of neurogenesis to astrogenesis is determined to measure the neurogenic response. Neurodifferentiation is measured, for example, by detecting neurodifferentiation specific expression markers which methods are known in the art.
Human neural stem cells (hNSCs) were isolated and grown in monolayer culture, plated, treated with varying concentrations of atorvastatin (test compound), and stained with TUJ-1 antibody, as described in U.S. Provisional Application No. 60/697,905 (U.S. Patent Publication 2007/0015138). Mitogen-free test media with a positive control for neuronal differentiation was used along with basal media without growth factors as a negative control.
Human neural stem cells (hNSCs) were isolated and grown in monolayer culture, plated, treated with varying concentrations of atorvastatin in the presence or absence of buspirone, and stained with TUJ-1 antibody for the detection of neuronal differentiation or GFAP antibody for the detection of astrocyte differentiation, as described in U.S. Provisional Application No. 60/697,905 (U.S. Patent Publication 2007/0015138). Mitogen-free test media with a positive control for neuronal differentiation was used along with basal media without growth factors as a negative control.
Human neural stem cells (hNSCs) were isolated and grown in monolayer culture, plated, treated with varying concentrations of atorvastatin in the presence or absence of ribavirin, and stained with TUJ-1 antibody for the detection of neuronal differentiation or GFAP antibody for the detection of astrocyte differentiation, as described in U.S. Provisional Application No. 60/697,905 (U.S. Patent Publication 2007/0015138). Mitogen-free test media with a positive control for neuronal differentiation was used along with basal media without growth factors as a negative control.
Human neural stem cells (hNSCs) were isolated and grown in monolayer culture, plated, treated with varying concentrations of atorvastatin in the presence or absence of tacrine, and stained with TUJ-1 antibody for the detection of neuronal differentiation or GFAP antibody for the detection of astrocyte differentiation, as described in U.S. Provisional Application No. 60/697,905 (U.S. Patent Publication 2007/0015138). Mitogen-free test media with a positive control for neuronal differentiation was used along with basal media without growth factors as a negative control.
Human neural stem cells (hNSCs) were isolated and grown in monolayer culture, plated, treated with varying concentrations of atorvastatin in the presence or absence of azakenpaullone, and stained with TUJ-1 antibody for the detection of neuronal differentiation or GFAP antibody for the detection of astrocyte differentiation, as described in U.S. Provisional Application No. 60/697,905 (U.S. Patent Publication 2007/0015138). […]

For a further experiment, the target named is mGluR3 (Homo sapiens, UniProt Q14832). Conditions: read-out: IC50 against mGluR3; cited from earlier work.
Experiment [2] deals with Group I and Group III receptors. As to conditions: at sub-mM concentrations; cited from earlier work.
The target in another experiment is mGluR2 (Homo sapiens, UniProt Q14416). Conditions: read-out: IC50 against mGluR2; cited from earlier work.
For a further experiment, the target named is human mGlu3 (Homo sapiens, UniProt Q14832). As to conditions: low nanomolar range; read-out: EC50 against human mGlu3 receptors in vitro; cited from earlier work.
Another experiment deals with human mGlu2 (Homo sapiens, UniProt Q14416). As to conditions: low nanomolar range; read-out: EC50 against human mGlu2 receptors in vitro; cited from earlier work.
Experiment [3] deals with KA, AMPA, and NMDA iGlu receptors. Conditions: cited from earlier work.
Experiment [4] concerns BrdU positive cells within the granule cell layer of the dentate gyrus. On the procedure: Male F344 rats were dosed 1× per day for 28-days with vehicle (n=12 per dose group, p.o.), 5.0 mg/kg fluoxetine (n=12 per dose group, p.o.), 15.0 mg/kg fluoxetine (n=12 per dose group, p.o.), 10.0 mg/kg atorvastatin (n=12 per dose group, p.o.) or the combination of fluoxetine (5.0 mg/kg, p.o.)+atorvastatin (10.0 mg/kg, p.o.).
Male F344 rats were dosed 1× per day for 21-days with 0 (vehicle only), 5.0 mg/kg fluoxetine (n=12 per dose group, p.o.), 15.0 mg/kg fluoxetine (n=12 per dose group, p.o.), 10.0 mg/kg atorvastatin (n=12 per dose group, p.o.) or the combination of fluoxetine (5.0 mg/kg, p.o.)+atorvastatin (10.0 mg/kg, p.o.). BrdU was administered once daily between days 9 and 14 (100 mg/kg/day, i.p., n=12 per dose group). […] Data are presented as percent change in BrdU positive cells per cubic mm dentate gyrus. […] Data are presented as the percentage of cells colabeled for BrdU and the mature neuronal marker NeuN within the dentate gyrus.

Where [5] appears, read: Homo sapiens, Neural stem cell, percentage of neuronal positive control, basal media values subtracted, read-out: EC50, neuronal differentiation, agent used alone.
[6] abbreviates: Homo sapiens, Neural stem cell, maximum fixed to 120% for all conditions, read-out: EC50, neuronal differentiation, agent alone, maximum percent of positive control fixed to a common 120%.

Here are results for eleven molecules from patent US20080103105A1, “HMG CoA REDUCTASE MEDIATED MODULATION OF NEUROGENESIS” (BrainCells, Inc., priority 2006, published 2008).

Like-named read-outs stand apart in the source and are kept apart here.

human mGlu3, sequence (Q14832 23-879): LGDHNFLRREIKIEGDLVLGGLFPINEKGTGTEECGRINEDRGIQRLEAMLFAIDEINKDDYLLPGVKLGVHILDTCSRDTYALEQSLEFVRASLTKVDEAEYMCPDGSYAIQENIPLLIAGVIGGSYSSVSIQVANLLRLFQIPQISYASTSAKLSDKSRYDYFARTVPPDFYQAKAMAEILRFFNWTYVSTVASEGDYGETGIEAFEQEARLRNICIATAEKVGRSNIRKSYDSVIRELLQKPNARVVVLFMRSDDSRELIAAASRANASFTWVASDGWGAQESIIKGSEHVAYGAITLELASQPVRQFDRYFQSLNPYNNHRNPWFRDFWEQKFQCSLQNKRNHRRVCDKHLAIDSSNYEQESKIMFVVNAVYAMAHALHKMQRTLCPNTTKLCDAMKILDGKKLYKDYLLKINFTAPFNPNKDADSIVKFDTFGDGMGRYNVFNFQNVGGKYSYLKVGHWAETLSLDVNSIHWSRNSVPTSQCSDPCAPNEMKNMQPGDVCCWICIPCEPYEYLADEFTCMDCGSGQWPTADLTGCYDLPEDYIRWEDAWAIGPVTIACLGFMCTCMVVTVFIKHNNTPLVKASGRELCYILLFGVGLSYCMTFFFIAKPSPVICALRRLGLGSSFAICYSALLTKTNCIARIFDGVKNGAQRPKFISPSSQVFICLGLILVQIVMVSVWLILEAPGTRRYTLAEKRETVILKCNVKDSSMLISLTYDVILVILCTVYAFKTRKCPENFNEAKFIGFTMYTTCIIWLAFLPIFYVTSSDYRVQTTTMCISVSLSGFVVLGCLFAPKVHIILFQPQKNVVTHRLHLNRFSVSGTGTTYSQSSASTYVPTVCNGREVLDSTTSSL
mGluR3, sequence (Q14832 23-879): as above
human mGlu2, sequence (Q14416 19-872): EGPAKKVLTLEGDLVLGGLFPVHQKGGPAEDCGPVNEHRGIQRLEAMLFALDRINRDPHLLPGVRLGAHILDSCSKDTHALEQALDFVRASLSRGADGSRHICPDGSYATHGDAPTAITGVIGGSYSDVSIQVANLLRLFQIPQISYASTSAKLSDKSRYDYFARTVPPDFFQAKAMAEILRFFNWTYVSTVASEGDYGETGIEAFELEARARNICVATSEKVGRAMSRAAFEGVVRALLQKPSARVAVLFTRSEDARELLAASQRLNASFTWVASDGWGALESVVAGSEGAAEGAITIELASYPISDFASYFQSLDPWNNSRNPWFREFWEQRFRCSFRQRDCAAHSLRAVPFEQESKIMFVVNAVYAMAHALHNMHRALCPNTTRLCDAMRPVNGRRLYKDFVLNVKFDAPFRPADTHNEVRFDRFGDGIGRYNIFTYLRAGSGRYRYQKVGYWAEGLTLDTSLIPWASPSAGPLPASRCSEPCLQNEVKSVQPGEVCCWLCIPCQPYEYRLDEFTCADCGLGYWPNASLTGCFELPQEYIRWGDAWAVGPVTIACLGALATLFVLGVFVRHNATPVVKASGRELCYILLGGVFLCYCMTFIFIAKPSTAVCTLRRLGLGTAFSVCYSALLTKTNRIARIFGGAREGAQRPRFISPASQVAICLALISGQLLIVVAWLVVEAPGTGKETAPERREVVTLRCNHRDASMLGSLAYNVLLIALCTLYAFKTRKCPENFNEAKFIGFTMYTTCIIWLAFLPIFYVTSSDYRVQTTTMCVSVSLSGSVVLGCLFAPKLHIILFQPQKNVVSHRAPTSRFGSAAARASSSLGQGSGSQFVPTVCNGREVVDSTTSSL
mGluR2, sequence (Q14416 19-872): as above

As to `Nc1c2c(nc3ccccc13)CCCC2` [tacrine], the half-maximal effective concentration (EC50) in experiment [1] (setting [5]) came out at 7.4 µM. As to `NC1(C(=O)O)CCc2cc(P(=O)(O)O)ccc21` (racemic) [APICA, (RS)-1-amino-5-phosphonoindan-1-carboxylic acid], the IC50 at mGluR3 and at mGluR2 was roughly 30 µM each time. Besides, in experiment [2], the “activity against Group I or Group III receptors” value was “no appreciable activity”. In the case of `NC(=O)c1ncn([C@@H]2O[C@H](CO)[C@@H](O)[C@H]2O)n1` [ribavirin], in experiment [1] (setting [5]), the EC50 was determined as 3.8 µM. As to `NCCc1c[nH]c2ccc(O)cc12` [serotonin], in experiment [1] (setting [5]), the 50% effective concentration (EC50) was 4.5 µM. `O=C1CC2(CCCC2)CC(=O)N1CCCCN1CCN(c2ncccn2)CC1` [buspirone]: the EC50 in experiment [1] (setting [5]) was 5.8 µM. Take `NC1(C(=O)O)COC2C(C(=O)O)C21` (single isomer, unassigned; (-)) [LY379268, (−)-2-Oxa-4-aminobicyclohexane-4,6-dicarboxylic acid]: the half-maximal effective concentration (EC50) on human mGlu3 and on human mGlu2 was less than 0.01 µM each time. Take `N[C@](CC1c2ccccc2Oc2ccccc21)(C(=O)O)[C@H]1C[C@@H]1C(=O)O` [LY341495, (2S)-2-amino-2-(1S,2S-2-carboxycycloprop-1-yl)-3-(xanth-9-yl) propanoic acid]: the “activity against KA, AMPA, and NMDA iGlu receptors” value in experiment [3] is “substantially inactive”.

`Nc1nc2ncc(CNc3ccc(C(=O)N[C@@H](CCC(=O)O)C(=O)O)cc3)nc2c(=O)[nH]1` [folic acid]: the EC50 in experiment [1] (setting [5]) was determined as 4.8 µM.

With `O=C1Cc2c([nH]c3ccc(Br)cc23)-c2ncccc2N1` [azakenpaullone], the figures for the EC50 in experiment [1] (setting [6]) and in experiment [1] (setting [5]) were 0.33 µM and 1.1 µM, respectively. Also, the “maximum percent of positive control neuronal differentiation” value in experiment [1] (addition of azakenpaullone) was “greater than 100%”. Turning to `Clc1ccc2c(c1)N=C(N1CCNCC1)c1ccccc1N2` [N-desmethylclozapine], the “neurogenic activity in assays as disclosed herein” value in experiment [1] is given as “highly neurogenic”. As to `CC(C)c1c(C(=O)Nc2ccccc2)c(-c2ccccc2)c(-c2ccc(F)cc2)n1CC[C@@H](O)C[C@@H](O)CC(=O)O` [atorvastatin], the concentration giving a half-maximal response (EC50) was determined as 0.004 µM in experiment [1] (setting [6]) and 0.0031 µM in experiment [1] (percentage of neuronal positive control, basal media values subtracted, read-out: EC50, neuronal differentiation, agent used alone). The “neuronal differentiation, result in words” value in experiment [1] (percent of neuronal positive control, combination relative to either agent alone) is on record as “promoted neuronal differentiation”. In addition, in experiment [4] (10.0 mg/kg atorvastatin p.o. 1× per day), the “number of BrdU positive cells (percent change per cubic mm dentate gyrus)” value is “significantly increased”. Moreover, in experiment [4] (atorvastatin 10.0 mg/kg p.o. alone or with fluoxetine 5.0 mg/kg p.o., 1× per day), the “number of new neurons within the granule cell layer of the dentate gyrus” value is “significant increase”.
